Data: patent US12410141B2, “Anti-cancer spirocyclic-guanidine compounds and uses thereof” (The Johns Hopkins University, priority 2020, dated 2025)

Assays:
42 kDa RPN13 = molecular target: T1, 42 kDa RPN13 (Homo sapiens, UniProt Q16186); test: RA190B competitive labeling assay in ES2 cell lysate; format: binding; conditions: ES2 cell lysate pre-incubated 45 min at 4° C. (bortezomib or Up compounds 5 μM), then RA190B 20 μM
T1 construct: endogenous in cells; host or cells: ES2 cell lysate (clarified, in MPER buffer)
Experimental: (§1) Clarified cell lysate (40 ug/sample) in MPER buffer was pretreated with streptavidin-coated magnetic beads for 45 min at 4° C. to deplete non-specific biotinylated proteins in the cell lysate. […] Next, the samples were mixed with Laemmli sample buffer (BioRad) and boiled for 5 min. The proteins were separated using a 4-15% Bio-Rad Mini-PROTEAN SDS-PAGE gel (1 hr at 100 V), and transferred to PVDF membrane overnight at 4° C. (24 V). The membrane was blocked with 5% BSA in PBST for 1 hr at RT and washed for 20 minutes (3× with PBST). Then the membrane was probed with HRP-streptavidin (1:10,000 in PBST) for 1 hr at RT, washed for 30 min (3× with PBST), and developed using HyGLO chemiluminescent detection reagent (Denville) for biotin detection.
ES2 cell lysates were incubated with 20 μM RA190B for 45 min at 4° C., and then separated by SDS-PAGE, transferred to a PVDF membrane.

[1] = tested on: HCC1806 cells stably expressing 4UbFL; test: 4UbFL proteasome reporter, HCC1806 cells; format: cell-based; conditions: 4 hr treatment, IVIS imager
Experimental: Data are presented as IVIS image (FIG. 8A) and bioluminescence units (FIG. 8B).
4T1 and HCC1806 cells were transfected with 4UbFL plasmid using TransIT2020 transfection reagent for a period of 48 hrs and cells were selected using G418 antibiotic from single colonies. Selected cells were seeded in a 24-well plate (50,000/well) and incubated for 18 h at 37° C. in an incubator. Next, cells were treated with compounds for the period of 4 hr and Luciferin was added (50 uL each well, 7.8 mg/mL) and imaged through an IVIS200 instrument and plotted as a bioluminescent value or fold increase to DMSO control.

MDA-MB-468 = test: MTT cytotoxicity assay, MDA-MB-468; format: cell-based; conditions: MDA-MB-468, breast, 72 hr, read-out: IC50, cell killing
Experimental: (§2) All cell lines were obtained from the American Type Culture Collection (ATCC) and cultured in the specified medium supplemented with 10% fetal bovine serum, 100 IU/mL penicillin, and 100 μg/mL streptomycin at 37° C. in a humidified 5% CO2/95% air incubator. To assess drug cytotoxicity cells were seeded at 2,500 cells/well (10,000 cells/well for MM lines and primary cells) in 100 μL medium in 96-well plate. […]
(§3) It was examined whether the RPN13 inhibitor, RA475, was cytotoxic for cancer cell lines using the MTT assay.

ES2 [2] = test: Flow cytometry analysis of cell death, ES2; format: cell-based; conditions: 1 μM or 2 μM, 16 hr
Experimental: 10^5 cells were re-suspended in binding buffer, 5 μL of Annexin V-PE (Apoptosis Detection Kit I (BD Pharmingen) and 5 μL of 7-AAD were then added into the cells, which were then incubated at room temperature for 15 minutes and analyzed by flow cytometry on a FACSCalibur using CellQuest software (Becton Dickinson).
Two ovarian cancer cell lines, ES2 and OVCAR3, were treated with 1 μM or 2 μM RA475 and 16 hr later the cells were harvested and stained with 7-AAD and Annexin V. 7-AAD is a DNA dye that can enter dying cells and Annexin V is commonly used to detect apoptotic cells by its ability to bind to phosphatidylserine, an early marker of apoptosis when it is exposed on the outer leaflet of the plasma membrane.

TSH1 = test: MTT cytotoxicity assay, TSH1; format: cell-based; conditions: TSH1, thyroid, 72 hr, read-out: IC50, cell killing
Experimental: as §2, §3

[3] = molecular target: T2, 42 kDa cellular protein, consistent with RPN13 (Homo sapiens, UniProt Q16186); test: Up284B competitive labeling assay in SKOV3 or ES2 cell lysates; format: binding; conditions: pre-cleared SKOV3 or ES2 lysates, 45 min at 4° C., then 5 μM Up284B
T2 construct: endogenous in cells; host or cells: SKOV3 or ES2 cell lysates, pre-cleared with streptavidin-coated beads
Experimental: as §1
Briefly SKOV3 or ES2 cell lysates were first pre-cleared with streptavidin-coated beads to deplete endogenous biotinylated proteins. The pre-cleared lysates were then divided into equal aliquots. […] The lysates were then boiled in gel sample buffer, separated by SDS-PAGE, and transferred to a PVDF membrane.

ES2 [4] = test: MTT cytotoxicity assay, ES2; format: cell-based; conditions: ES2, ovarian, 72 hr, read-out: IC50, cell killing
Experimental: as §2, §3

DLD-1 = test: MTT cytotoxicity assay, DLD-1; format: cell-based; conditions: DLD-1, colon, 72 hr, read-out: IC50, cell killing
Experimental: as §2, §3

T2 sequence (Q16186 whole entry): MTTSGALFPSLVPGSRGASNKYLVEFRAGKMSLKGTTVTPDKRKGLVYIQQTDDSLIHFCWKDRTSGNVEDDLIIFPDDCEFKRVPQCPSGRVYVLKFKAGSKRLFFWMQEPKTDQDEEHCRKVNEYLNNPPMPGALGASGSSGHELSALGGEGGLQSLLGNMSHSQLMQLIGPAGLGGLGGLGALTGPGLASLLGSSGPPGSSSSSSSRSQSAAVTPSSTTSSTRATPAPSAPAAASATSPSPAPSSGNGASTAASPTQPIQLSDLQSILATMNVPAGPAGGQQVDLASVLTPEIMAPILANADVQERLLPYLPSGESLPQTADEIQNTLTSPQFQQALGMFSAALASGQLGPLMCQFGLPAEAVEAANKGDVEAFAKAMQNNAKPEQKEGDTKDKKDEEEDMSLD
T1 sequence (Q16186 whole entry): as above

Compound	competition with binding of RA190B to the 42 kDa RPN13 (42 kDa RPN13)	bioluminescence of 4UbFL reporter [1]	IC50 (MDA-MB-468)	7-AAD and Annexin V double positive cells (ES2 [2])	IC50 (TSH1)	competition with binding of Up284B probe to RPN13 [3]	IC50 (ES2 [4])	IC50 (DLD-1)
N#Cc1ccc(/C=C2/C(=O)/C(=C/c3ccc(C#N)cc3)C23CCNCC3)cc1 [Up284, reference compound]	competed							
Cl.Cl.N#Cc1ccc(/C=C2/C(=O)/C(=C/c3ccc(C#N)cc3)C23CCN(C(=N)N)CC3)cc1 [RA475]		dose-dependent increase	0.292 µM	dose-dependent induction	0.114 µM	dose-dependently competed	0.16 µM	0.491 µM
